According to PMC7998731, “Pharmacokinetic Characterization of Supinoxin and Its Physiologically Based Pharmacokinetic Modeling in Rats” (Pharmaceutics, 2021):
Read-outs that look alike come from different tables or passages of the source.

Experiments:
[1] = In vivo pharmacokinetic study, intravenous administration to rats; conditions: rat, plasma; for concentration at 0.083 h / concentration at 0.25 h / concentration at 0.5 h / concentration at 1 h / concentration at 3 h / concentration at 7 h / concentration at 10 h / concentration at 24 h: fasted male SD rats; for concentration at 24 h: BQL treated as 0; for AUC(0-inf) / AUC(0-t) / MRT / clearance / half-life / Vd: male
Experimental: (§1) Male Sprague Dawley (SD) rats, 6–7 weeks old, were purchased from Orient Bio Inc. (Seongnam-si, Korea) and were used in all in vivo studies. The animals were maintained at a temperature of 20–26 °C with a 12 h light/dark cycle and a relative humidity of 40–60%. The experimental protocols involving the animals used in this study were reviewed by the Animal Care and Use Committee of Chungnam National University (CNU-00576, Daejeon, Korea; approval date: 13 March 2015).
(§2) Supinoxin was dissolved in a vehicle (10% DMSO, 10% Tween 80, 40% PEG 400, and 40% saline). In single doses, the administration routes involved an intravenous bolus via the tail vein (n = 4–5) and an oral gavage dose (n = 4–5). The dosing volume was 2 mL per kg body weight, and the dosing range was 0.5, 1, and 5 mg/kg. Blood samples (200 µL) were collected from the jugular vein at 0.083 (intravenous only), 0.25, 0.5, 1, 3, 7, 10, and 24 h after dosing, using a heparinized syringe to ensure anticoagulation. During blood sampling, rats were placed in a restrainer (Nagai-CFS-1S; NMS, Tokyo, Japan). For the separation of plasma fractions, all blood samples were centrifuged at 17,600× g for 5 min. The samples were stored at −20 °C until analysis. When obtaining tissue concentrations to calculate the tissue-to-plasma partition ratio was necessary, samples of nine tissues (i.e., adipose, heart, muscle, kidney, brain, liver, spleen, gut, and lung) were collected at 0.33, 1, 3, 7, and 24 h after 5 mg/kg intravenous administration of supinoxin (n = 3).
(§3) The peak concentration (Cmax) and the time to reach Cmax (Tmax) were obtained directly from individual plasma concentration–time profiles. Linear trapezoidal rule was used to calculate the areas under the plasma concentration–time curve (AUC) and the first moment curve (AUMC), while the terminal half-life (T1/2) was calculated using 0.693/λ, where λ represents the slope of the log-transformed concentration–time profiles of the terminal phase. The systemic clearance (CL), mean residence time (MRT), and the volume of the distribution at the steady state (Vss) were calculated as follows: dose/AUC, AUMC/AUC, and MRT·CL, respectively. To calculate the absolute oral bioavailability (F) we divided the AUC obtained following oral administration by that obtained following intravenous administration of the respective dose.
(§4) To determine supinoxin concentrations in plasma, feces, and urine, we used a previously reported LC–MS/MS assay using DGG-200064 as an internal standard (IS). Briefly, an aliquot (50 μL) of IS solution (concentration 100 ng/mL) was added to 50 μL of plasma, feces, or urine sample, following which 400 μL of acetonitrile containing 0.1% formic acid was added. After vigorous vortexing for 10 min, the extract was centrifuged at 17,600 rpm for 10 min at 4 °C, and the supernatant was placed in an autosampler vial. An aliquot of 5 µL was then injected into the analytical column for chromatographic separation; the analytical system consisted of a 1200 series HPLC system (Applied Biosystems, Foster City, CA, USA) equipped with a turbo-electrospray interface in positive ionization mode.

[2] = In vivo pharmacokinetic study, oral administration to rats; conditions: Sprague-Dawley, rat, plasma; for concentration at 0.25 h / concentration at 0.5 h / concentration at 1 h / concentration at 3 h / concentration at 7 h / concentration at 10 h / concentration at 24 h: fasted male SD rats; for concentration at 24 h: BQL treated as 0; for AUC(0-inf) / AUC(0-t) / Cmax / MRT / Tmax / half-life / bioavailability: male, rats, oral
Experimental: as §1, §2, §3, §4

CYP2C19 = target: T1, CYP2C19 (Homo sapiens, UniProt P33261); assay: CYP inhibition, Vivid CYP450 screening kit; format: in vitro ADME
T1 construct: purchased Thermo Fisher Scientific
Experimental: CYP inhibition by supinoxin was studied using Vivid® CYP450 screening kits (Thermo Fisher Scientific, San Jose, CA, USA) following the manufacturer’s instructions. Briefly, Vivid® substrates were dissolved in acetonitrile yielding a stock solution of 2 mM. Fluorescent assays were conducted at room temperature using Costar 96-well black plates (#3915; Corning Costar, Acton, MA, USA). Supinoxin stock solution was diluted in reaction buffer to yield a 2.5X concentration solution (final concentration of 10 µM); aliquots (40 μL) of the solution were added to the wells. Subsequently, aliquots (50 μL) of reaction mixture consisting of P450 Baculosomes® Reagent and the NADPH regeneration system were also added to the wells and preincubated for 10 min, at room temperature, after which 10 μL of 1 mM NADP^+ and Vivid® substrate mixture were added. After a 30-min incubation, fluorescence was detected in end-point mode using a Varioscan™ Flash multimode reader (Thermo Fisher Scientific, San Jose, CA, USA). Background fluorescence was obtained from wells not containing CYP isozymes and was withdrawn before further reaction. The excitation and emission wavelengths of 485 nm/530 nm for Vivid® Green substrates, and 409 nm/460 nm for Vivid® Blue substrates were used. The inhibition percentage of the compound was determined in comparison to the vehicle (i.e., DMSO)-treated control wells. For isozymes with > 50% inhibition at 10 μM, we determined the concentration-dependent inhibition of supinoxin to obtain the IC50 value at concentrations ranging from 0.59 to 10 μM.

[3] = Sprague-Dawley, intravenous 0.5 mg/kg
[4] = Sprague-Dawley, intravenous 5 mg/kg
[5] = Sprague Dawley, rats, intravenous, 0.5 mg/kg
[6] = Sprague Dawley, rats, intravenous, 5 mg/kg

T1 sequence (P33261 whole entry): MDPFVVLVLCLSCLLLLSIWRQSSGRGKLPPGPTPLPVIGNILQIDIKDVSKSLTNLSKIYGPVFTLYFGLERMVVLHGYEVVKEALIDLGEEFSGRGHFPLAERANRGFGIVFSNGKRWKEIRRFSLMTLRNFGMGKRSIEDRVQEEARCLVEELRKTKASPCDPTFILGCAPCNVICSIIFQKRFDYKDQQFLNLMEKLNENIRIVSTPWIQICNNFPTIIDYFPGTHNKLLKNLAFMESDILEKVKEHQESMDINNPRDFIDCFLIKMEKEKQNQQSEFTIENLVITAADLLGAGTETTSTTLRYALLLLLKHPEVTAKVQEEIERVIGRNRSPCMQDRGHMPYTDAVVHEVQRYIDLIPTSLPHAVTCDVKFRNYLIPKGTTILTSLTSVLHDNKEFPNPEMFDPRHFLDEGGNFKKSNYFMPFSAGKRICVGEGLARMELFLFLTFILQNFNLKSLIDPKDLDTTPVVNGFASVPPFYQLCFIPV

- concentration at 0.083 h [1, 3]: 313 ng/mL
- concentration at 0.25 h [1, 3]: 255 ng/mL
- concentration at 0.5 h [1, 3]: 206 ng/mL
- concentration at 1 h [1, 3]: 140 ng/mL
- concentration at 3 h [1, 3]: 79.3 ng/mL
- concentration at 7 h [1, 3]: 20.8 ng/mL
- concentration at 10 h [1, 3]: 8.2 ng/mL
- concentration at 24 h [1, 3]: 0.3 ng/mL
- concentration at 0.083 h [1, 4]: 2380 ng/mL
- concentration at 0.25 h [1, 4]: 1640 ng/mL
- concentration at 0.5 h [1, 4]: 1310 ng/mL
- concentration at 1 h [1, 4]: 907 ng/mL
- concentration at 3 h [1, 4]: 600 ng/mL
- concentration at 7 h [1, 4]: 234 ng/mL
- concentration at 10 h [1, 4]: 130 ng/mL
- concentration at 24 h [1, 4]: 5.8 ng/mL
- AUC(0-inf) [1, 5]: 727 ± 177 ng·h/mL
- AUC(0-t) [1, 5]: 715 ± 180 ng·h/mL
- MRT [1, 5]: 2.92 ± 0.65 h
- clearance ([1]; Sprague Dawley, rats, intravenous, 0.5 mg/kg, read-out: CL (converted)): 11.9 mL/min/kg
- half-life ([1]; Sprague Dawley, rats, intravenous, 0.5 mg/kg, read-out: T1/2 (converted)): 2.54 ± 0.83 h
- AUC(0-inf) [1, 6]: 6130 ± 1750 ng·h/mL
- AUC(0-t) [1, 6]: 6090 ± 1760 ng·h/mL
- MRT [1, 6]: 4.07 ± 1.37 h
- clearance ([1]; Sprague Dawley, rats, intravenous, 5 mg/kg, read-out: CL (converted)): 14.4 mL/min/kg
- half-life ([1]; Sprague Dawley, rats, intravenous, 5 mg/kg, read-out: T1/2 (converted)): 2.8 ± 0.71 h
- clearance ([1]; Sprague-Dawley, PBPK input parameter, Determined, from intravenous administration study, read-out: In vivo clearance (CLiv)): 3.16 mL/min
- Vd ([1]; Sprague-Dawley, rats, intravenous, 0.5 mg/kg, read-out: Vss): 2.11 ± 0.803 L/kg
- Vd ([1]; Sprague-Dawley, rats, intravenous, 5 mg/kg, read-out: Vss): 3.5 ± 1.45 L/kg
- Vd ([1]; Sprague-Dawley, rats, intravenous, range over doses 0.5–5 mg/kg, read-out: steady state volume of distribution): 2.04 to 3.5 L/kg
- clearance ([1]; Sprague-Dawley, rats, intravenous, range over doses 0.5–5 mg/kg, read-out: systemic clearance): 11.5 to 14.4 mL/min/kg
- half-life ([1]; Sprague-Dawley, rats, intravenous, range over doses 0.5–5 mg/kg, read-out: terminal half-life): 2.54 to 2.8 h
- concentration at 0.25 h ([2]; oral 0.5 mg/kg): 51 ng/mL
- concentration at 0.5 h ([2]; oral 0.5 mg/kg): 99.6 ng/mL
- concentration at 1 h ([2]; oral 0.5 mg/kg): 99.6 ng/mL
- concentration at 3 h ([2]; oral 0.5 mg/kg): 58 ng/mL
- concentration at 7 h ([2]; oral 0.5 mg/kg): 13.1 ng/mL
- concentration at 10 h ([2]; oral 0.5 mg/kg): 5 ng/mL
- concentration at 24 h ([2]; oral 0.5 mg/kg): 0 ng/mL
- concentration at 0.25 h ([2]; oral 5 mg/kg): 474 ng/mL
- concentration at 0.5 h ([2]; oral 5 mg/kg): 676 ng/mL
- concentration at 1 h ([2]; oral 5 mg/kg): 800 ng/mL
- concentration at 3 h ([2]; oral 5 mg/kg): 480 ng/mL
- concentration at 7 h ([2]; oral 5 mg/kg): 113 ng/mL
- concentration at 10 h ([2]; oral 5 mg/kg): 40.4 ng/mL
- concentration at 24 h ([2]; oral 5 mg/kg): 0.5 ng/mL
- AUC(0-inf) ([2]; 0.5 mg/kg): 418 ± 133 ng·h/mL
- AUC(0-t) ([2]; 0.5 mg/kg): 402 ± 130 ng·h/mL
- Cmax ([2]; 0.5 mg/kg): 108 ± 36 ng/mL
- MRT ([2]; 0.5 mg/kg): 2.99 ± 0.71 h
- Tmax ([2]; 0.5 mg/kg): 0.8 ± 0.274 h
- half-life ([2]; 0.5 mg/kg): 2 ± 0.5 h
- bioavailability ([2]; 0.5 mg/kg, read-out: F (absolute oral bioavailability)): 57.4 ± 18.3%
- AUC(0-inf) ([2]; 5 mg/kg): 3510 ± 1420 ng·h/mL
- AUC(0-t) ([2]; 5 mg/kg): 3480 ± 1450 ng·h/mL
- Cmax ([2]; 5 mg/kg): 823 ± 340 ng/mL
- MRT ([2]; 5 mg/kg): 3.17 ± 0.36 h
- Tmax ([2]; 5 mg/kg): 0.75 ± 0.289 h
- half-life ([2]; 5 mg/kg): 2.02 ± 0.33 h
- bioavailability ([2]; 5 mg/kg, read-out: F (absolute oral bioavailability)): 57.2 ± 23.1%
- bioavailability ([2]; range over doses 0.5–5 mg/kg, read-out: absolute oral bioavailability): 56.9 to 57.4%
- IC50 (CYP2C19; human recombinant CYP2C19): > 10 µM
- inhibition at 30 min, 10 µM (CYP2C19; recombinant human CYP2C19 (P450 Baculosomes), probe Vivid substrate, human recombinant CYP2C19, 10 µM, read-out: inhibition compared to the vehicle control): 35.7%
SMILES: COc1cc(OC)cc(N2CCN(C(=O)Nc3nc4cc(F)ccc4nc3OC)CC2)c1 [supinoxin, 1-(3,5-Dimethoxyphenyl)-4-[(6-Fluoro-2-Methoxyquinoxalin-3-yl) Aminocarbonyl] Piperazine]
